Assay results as given in article PMC6274259, “New 3-Cyano-2-Substituted Pyridines Induce Apoptosis in MCF 7 Breast Cancer Cells” (Molecules, 2016).

Experiments:
Format in all cases: cell-based, human
MCF-7 cells = assay: Western blot analysis of protein expression
Protocol: Total protein was extracted from treated and untreated cells using lysis buffer (10 mM Tris-HCl (pH 7.5), 1 mM EDTA, 1% Triton X-100, 150 mM NaCl, 1 mM dithiothretol, 10% glycerol, 0.2 mM phenylmethysulphonyl fluoride and protease inhibitors) for 30–50 min on ice. The extracts were centrifuged at 13,000× g for 15 min at 4 °C to remove cell debris. Folin Lowry (Pierce, Grand Island, NY, USA) protein assay was used to figure the protein concentration in the cell lysates. Proteins were resolved by electrophoresis on 8%–10% sodium dodecyl sulphate-polycrylamide gel loading equal amount of proteins per lane. The resolved proteins were transferred onto polyvinylidene difluoride (PVDF) membrane and then probed with primary antibody against the protein of interest prepared in 5% milk/PBS-T. The membrane was washed using phosphate buffer saline with Tween 20 (PBS-T) and then appropriate secondary antibody conjugated to horseradish peroxidase (HRP) was used for visualization of the bands using ECL chemiluminescence kit (GE, Fairfield, CT, USA). Anti-p27, anti-CDK2, anti-CDK4, anti-(p21), anti-(p53), anti-Bax, anti-Akt, anti-Bcl-2, anti-MDM2, anti-cytochrome C, anti-caspase-8, anti-procaspase-8, anti-FAS, anti-VEGF, anti-MMP-9, anti-β-catenin were purchased from SantaCruz (Dallas, TX, USA). Pixel density of the proteins studied was calculated using Image J, version 1.41o, NIH (Bethesda, MD, USA). The values obtained were first normalized to loading control β-actin and the fold change was measured by normalizing to that of the control (0 h) value. At least two independent experiments were performed.

[1] = WST-1 cell viability assay, MCF-12a normal cells; settings: human, MCF-12a normal breast epithelial cells, 2 μM, 24 h
Excerpt: (§1) The synthesized compounds were screened for their cytotoxicity on five cancer cell lines, namely SK-OV-3, MCF-7, MDA-MB-231, HCT-116 and RKO, using a WST colorimetric assay. The assay principle is based upon the reduction of the tetrazolium salt WST-1 to formazan by cellular mitochondrial dehydrogenases present in viable cells. […] Among the latter compounds the benzohydrazide derivative 9a emerged with the lowest IC50 in this study against MCF-7 cells compared to 5-FU. […] Based on the fact that 9a had less cytotoxic effects on normal breast epithelial cells it was subjected to further studies. […]
(§2) Cells were trypsinized and placed in a 15 mL Falcon tube, the cells were centrifuged for 3 min at 1000 rpm. […] Cell count was done next by taking 10 μL of the suspension into the cell counting slide and read under 10× cells/mL. […] After 24 h incubation, WST-1 reagent (Sigma) was added to each well and then the plate was incubated for 1 h before measuring the absorbance using VICTOR™ Multilabel Plate Reader (Perkin Elmer, Beaconsfield, UK). The absorbance of the colored solution can be quantified by measuring at a certain wavelength (usually between 500–600 nm), in this experiment the first reading was conducted at 540 nm and the second reading at 690 nm for the reference wavelength. The percentage of cell viability was determined as the ratio of the absorbance of the sample vs the control. […]

[2] = system: MCF-12a normal breast epithelial cells; assay: WST-1 cell viability assay, MCF-12a normal cells; settings: Homo sapiens, MCF-12A
Excerpt: as §1, §2

Structure (SMILES): COc1ccc(-c2cc(-c3ccc(OC)c(OC)c3)c(C#N)c(OCC(=O)NNC(=O)c3ccccc3)n2)cc1OC [Compound 9a, N'-[2-(3-cyano-4,6-bis(3,4-dimethoxyphenyl)pyridin-2-yloxy)acetyl]benzohydrazide]
- expression of CDK2 (MCF-7 cells; 2 μM, 24 h): decreased
- expression of CDK4 (MCF-7 cells; 2 μM, 24 h): decreased
- expression of MMP-9 (MCF-7 cells; 2 μM, 24 h): significantly inhibited
- expression of VEGF (MCF-7 cells; 2 μM, 24 h): significantly inhibited
- expression of caspase-3 (MCF-7 cells; 2 μM, 24 h): up-regulated
- expression of p27 (MCF-7 cells; 2 μM, 24 h): increased
- level of Akt (MCF-7 cells; 2 μM, 24 h): decreased
- level of Bcl-2 protein (MCF-7 cells; 2 μM, 24 h): decreased
- level of MDM2 (MCF-7 cells; 2 μM, 24 h): decreased
- level of procaspase 3 (MCF-7 cells; 2 μM, 24 h): decreased
- expression of cytochrome c in cytoplasm (MCF-7 cells; 2 μM, 24 h, cytosol fraction): increased
- expression of cytochrome c in mitochondria (MCF-7 cells; 2 μM, 24 h, mitochondrial fraction): reduced
- level of Bax (MCF-7 cells; 2 μM, 24 h, vs untreated cells): increased
- level of p21 (MCF-7 cells; 2 μM, 24 h, vs untreated cells): increased
- level of p53 (MCF-7 cells; 2 μM, 24 h, vs untreated cells): increased
- expression of phospho AKT (MCF-7 cells; 0.5, 1 and 2 μM, 24 h): reduced the expression of phospho AKT and β-catenin in dose-dependent manner
- expression of β-catenin (MCF-7 cells; 0.5, 1 and 2 μM, 24 h): reduced the expression of phospho AKT and β-catenin in dose-dependent manner
- expression of FAS (MCF-7 cells; treated vs untreated): no significant change
- expression of caspase-8 (MCF-7 cells; treated vs untreated): no significant change
- expression of procaspase-8 (MCF-7 cells; treated vs untreated): no significant change
- viability at 24 h, 2 µM [1]: ~74%
- IC50 [2]: 7.5 ± 0.25 µM
